Tests used:
Assay in all cases: Growth in liquid media in presence of test compound
Assay type in all cases: cell-based
[1] = system: Mycobacterium tuberculosis (H37Rv)
[2] = system: Escherichia coli (ATCC 25922)
From the text: (§1) Test organisms used were the bacterial strains Escherichia coli (ATCC 25922), Pseudomonas aeruginosa (ATCC 27853), Staphylococcus aureus (ATCC 25923), Streptococcus pyogenes (ATCC 19615), and Mycobacterium tuberculosis (H37Rv), and the yeast strain Candida albicans (ATCC 90028).
(§2) The liquid media used for growth were Luria-Bertani (Becton Dickinson, Sparks, Md.) and Mueller-Hinton (bio-Merieux, Paris, France) broths, but with Saburo medium for Candida and Middlebrook 7H9 medium (Difco) for mycobacteria.
(§3) The strains were grown at 37° C. and after suitable cell concentrations had been reached, 100 μL of each cell suspension was added to a tube with growth media and test compound. Cultivation of the bacteria was then carried out in the presence of each test compound at 37° C. and the tubes examined for visible growth. The compounds were tested at concentrations of either 500 mg/l, 50 mg/l or 5 mg/l. This assay was repeated twice.
(§4) Some compounds were only tested against some test organisms. It will be appreciated that the charge of these molecules will depend on the environment, some of the Examples are shown with a suitable counter ion, some without.

[3] = system: Pseudomonas aeruginosa (ATCC 27853)
From the text: as §1, §2, §3, §4

[4] = system: Candida albicans (ATCC 90028)
From the text: as §1, §2, §3, §4

[5] = system: Staphylococcus aureus (ATCC 25923)
From the text: as §1, §2, §3, §4

[6] = system: Streptococcus pyogenes (ATCC 19615)
From the text: as §1, §2, §3, §4

Row | SMILES | Growth in the presence of test compound, M. tuberculosis ([1]; 5 mg/L) | Growth in the presence of test compound, M. tuberculosis ([1]; 50 mg/L) | Growth in the presence of test compound, M. tuberculosis ([1]; 500 mg/L) | Growth in the presence of test compound, E. coli ([2]; 5 mg/L) | Growth in the presence of test compound, E. coli ([2]; 50 mg/L) | Growth in the presence of test compound, E. coli ([2]; 500 mg/L) | Growth in the presence of test compound, P. aeruginosa ([3]; 5 mg/L) | Growth in the presence of test compound, P. aeruginosa ([3]; 50 mg/L) | Growth in the presence of test compound, P. aeruginosa ([3]; 500 mg/L) | Growth in the presence of test compound, C. albicans ([4]; 5 mg/L) | Growth in the presence of test compound, C. albicans ([4]; 50 mg/L) | Growth in the presence of test compound, C. albicans ([4]; 500 mg/L) | Growth in the presence of test compound, S. aureus ([5]; 5 mg/L) | Growth in the presence of test compound, S. aureus ([5]; 50 mg/L) | Growth in the presence of test compound, S. aureus ([5]; 500 mg/L) | Growth in the presence of test compound, S. pyogenes ([6]; 5 mg/L) | Growth in the presence of test compound, S. pyogenes ([6]; 50 mg/L) | Growth in the presence of test compound, S. pyogenes ([6]; 500 mg/L)
1 | CC1(C)C2CC3OB(CC(CCc4ccccc4)NC(=O)C(N)CCCCN)OC3(C)C1C2 (stereo not drawn) [Compound 7] | + | + | − | + | + | − | + | + | ± | + | + | − | + | + | − | + | + | −
2 | CC1(C)C2CC3OB([C@@H](CNC(=O)[C@@H](N)CCCNC(=N)N)Cc4ccccc4)O[C@]3(C)C1C2 (stereo partly drawn) [Compound 11] | ± | − | − | + | + | − | + | + | − | + | + | − | + | + | − | + | + | −
3 | CC1(C)C2CC3OB([C@@H](CNC(=O)[C@H](N)CCCCN)Cc4ccccc4)O[C@]3(C)C1C2 (stereo partly drawn) [Compound 12] | ± | − | − | + | + | − | + | + | ± | + | + | − | + | + | ± | + | + | −
4 | CC1(C)C2CC3OB(C(CNC(=O)C(N)CCCCN)Cc4ccccc4)OC3(C)C1C2 (stereo not drawn) [Compound 13] | + | − | − | + | + | − | + | + | − | + | + | − | + | + | − | + | + | −
5 | CC1(C)C2CC3OB([C@H](CNC(=O)[C@@H](N)Cc4ccccc4)Cc4ccccc4)O[C@@]3(C)C1C2 (stereo partly drawn) [Compound 14] | + | − | − | + | + | + | + | + | − | + | ± | ± | + | + | + | + | + | ±
6 | C[C@H](N)C(=O)NC[C@H](Cc1ccccc1)B1OC2CC3CC(C3(C)C)[C@]2(C)O1 (stereo partly drawn) [Compound 15] | + | − | − | + | + | ± | + | + | + | + | + | − | + | + | − | + | + | +
7 | CC1(C)C2CC3OB([C@H](CCc4ccccc4)CNC(=O)[C@@H](N)Cc4ccccc4)O[C@]3(C)C1C2 (stereo partly drawn) [Compound 18] | + | − | − | + | + | + | + | ± | ± | + | ± | ± | + | − | ± | + | ± | ±
8 | CC1(C)C2CC3OB([C@H](CCc4ccccc4)CNC(=O)[C@@H](N)CCCCN)O[C@]3(C)C1C2 (stereo partly drawn) [Compound 19] | + | − | − | + | + | − | + | + | − | + | + | − | + | + | ± | + | + | −
9 | C[C@@H](B1OC2CC3CC(C3(C)C)[C@@]2(C)O1)[C@@H](Cc1ccccc1)NC(=O)[C@@H]1CCCN1 (stereo partly drawn) [Compound 29] | + | + | − |  |  |  | + | + | ± | + | + | ± | + | + | − | + | + | −

— patent publication US20150018311A1, “THERAPEUTIC BORON-CONTAINING COMPOUNDS” (priority 2012, published 2015)
